# Measured values as given in US8883203B2, “Solid oral dosage form containing an enhancer” (Merrion Research III Limited, priority 2006, dated 2014).
# Tests used:
# Caco-2 monolayers = assay: TEER of Caco-2 monolayers with MCFA sodium salts; format: cell-based; conditions: sodium salts with 3H-TRH, over 2 hours, concentrations of Table 1
# Method: Cell Culture: Caco-2 cells were cultured in Dulbecco's Modified Eagles Medium (DMEM) 4.5 g/L glucose supplemented with 1% (v/v) non-essential amino acids; 10% fetal calf serum and 1% penicillin/streptomycin. […] The cells were grown and expanded in standard tissue culture flasks and were passaged once they attained 100% confluence. The Caco-2 cells were then seeded on polycarbonate filter inserts (Costar; 12 mm diameter, 0.4 μm pore size) at a density of 5×10^5 cells/cm^2 and incubated in six well culture plates with a medium change every second day. Confluent monolayers between day 20 and day 30 seeding on filters and at passages 30-40 were used throughout these studies.
# The transport experiments were performed in Hank's Balanced Salt Solution (HBSS) containing 25 mM N[2-hydroxyethyl]-piperazine-N′-[2-ethanesulfonic acid] (HEPES) buffer, pH 7.4 at 37° C. Due to variations in solubilities, various concentrations of the different MCFA sodium salts and various apical buffers were used as shown in Table 1. In all cases the basolateral chamber contained regular HBSS+HEPES.
# After removing the cell culture medium, the monolayers were placed in wells containing prewarmed HBSS (37° C.); 1 ml apically and 2 ml basolaterally. Monolayers were incubated at 37° C. for 30 mins. Then at time zero, apical HBSS was replaced with the relevant apical test solution containing the radiolabelled compounds with and without the enhancer compound. […] The plates were placed on an orbital shaker in an incubator (37° C.). Transport across the monolayers was followed by basolateral sampling (1 ml) at 30 min. intervals up to 120 mins. At each 30 min. interval each insert was transferred to a new well containing 2 ml fresh prewarmed HBSS. Apical stock radioactivity was determined by taking 10 μl samples at t=0 and t=120 mins. […] Mean values for ^3H-TRH concentrations were calculated for the apical and basolateral solutions at each time point.
# [1] = Closed loop rat model, intraduodenal TRH with enhancer, serum TRH; format: in vivo, Male Wistar rats; conditions: 500 μg or 1000 μg TRH with 35 mg enhancer, interduodenal bolus
# Method: Male Wistar rats (weight range 250 g-350 g) were anaesthetized with ketamine hydrochloride/acepromazine. […] All intraduodenal dose volumes (for samples and control) were 1 ml/kg. The proximal end of the segment was ligated and the loop was sprayed with isotonic saline (37° C.) to provide moisture and then replaced in the abdominal cavity avoiding distension. The incision was closed with surgical clips. A group of animals were administered TRH in PBS (100 μg in 0.2 ml) by subcutaneous injection as a reference.
# anti-factor Xa activity [2] = assay: Closed-loop rat segment, intraileal USP heparin with enhancer, anti-factor Xa response; conditions: USP heparin 1000 IU
# Method: The procedure carried out in Example 1(a) above was repeated using USP heparin in place of TRH and dosing intraileally rather than intraduodenally. A mid-line incision was made in the abdomen and the distal end of the ileum located (about 10 cm proximal to the ileo-caecal junction). 7-9 cm of tissue was isolated and the distal end ligated, taking care to avoid damage to surrounding blood vessels. Heparin absorption as indicated by […] (APTT) response was measured by placing a drop of whole blood (freshly sampled from the tail artery) on the test cartridge of Biotrack 512 coagulation monitor. APTT measurements were taken at various time points.
# Citrated blood samples were centrifuged at 3000 rpm for 15 mins. to obtain plasma for anti-factor Xa analysis. […] The control in each case is a solution of the same heparin concentration containing no enhancer.
# APTT = assay: Closed-loop rat segment, intraileal USP heparin with enhancer, APTT response; format: in vivo; conditions: USP heparin 1000 IU, enhancer 10 and 35 mg
# From the text: APTT measurements were taken at various time points.
# [3] = cited from earlier work
# anti-factor Xa activity [4] = assay: Site of administration of LMWH with sodium caprate in dogs, anti-factor Xa; format: in vivo, beagle dogs; conditions: 45,000 IU LMWH and 0.55 g sodium caprate, oral, intrajejunal, intracolonic
# From the text: Four beagle dogs (10-15 Kg) were surgically fitted with catheters to the jejunum and colon respectively. […] 3,200 IU Fluxum™ SC was included in the study as a subcutaneous reference.
# anti-factor Xa activity [5] = assay: Intraduodenal LMWH with enhancers in rats (open loop), anti-factor Xa; format: in vivo, Male Wistar rats; conditions: 1000 IU parnaparin sodium intraduodenally
compound,measurement,setting,value
"CCCCCCCCCCCC(=O)[O-].[Na+] [Batch C12, sodium laurate]",effect on TEER (Ωcm^2) compared to the control,Caco-2 monolayers,some cell damage (reduction in TEER)
CCCCCCCCCCCCCC(=O)[O-].[Na+] [Batch C14],effect on TEER (Ωcm^2) compared to the control,Caco-2 monolayers,minimal reduction in TEER
CCCCCCCCCCCCCCCCCC(=O)[O-].[Na+] [Batch C18],effect on TEER (Ωcm^2) compared to the control,Caco-2 monolayers,minimal reduction in TEER
"CCCCCCCC(=O)[O-].[Na+] [NaC8, sodium caprylate]",serum levels of TRH over the control TRH solution,[1],significantly increases
"CCCCCCCCCC(=O)[O-].[Na+] [NaC10, sodium caprate]",serum levels of TRH over the control TRH solution,[1],significantly increases
same,anti-factor Xa activity relative to control heparin solution,anti-factor Xa activity [2]; enhancer 10 mg,significant increase in anti-factor Xa activity
same,anti-factor Xa activity relative to control heparin solution,anti-factor Xa activity [2]; enhancer 35 mg,significant increase in anti-factor Xa activity
same,effect on TEER (Ωcm^2) compared to the control,Caco-2 monolayers,minimal reduction in TEER
same,heparin absorption by APTT response compared to control heparin solution,APTT,significant increase in absorption
"NCCCC(O)(P(=O)(O)O)P(=O)(O)O [alendronate, Alendronate monosodium trihydrate]",further share of the dose absorbed excreted in the urine,[3]; over the next 64 hours,5%
same,share of the dose absorbed excreted in the urine,"[3]; within 8 hours, oral conventional forms",40%
parnaparin sodium [LMWH],intestinal absorption of LMWH versus absorption from the stomach,anti-factor Xa activity [4],considerably higher
same,systemic delivery of LMWH in the absence of enhancer,anti-factor Xa activity [5],relatively poor
